Source: the supplement of paper PMC10307832

What was measured:
Assay in all cases: relative viability (nuclei count vs DMSO), 5 days (fraction); higher = more cells survive
[1] = compound: CN(c1ncccc1CNc1nc(Nc2ccc3c(c2)CC(=O)N3)ncc1C(F)(F)F)S(C)(=O)=O
Method in brief: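 Following overnight incubation at 37 °C, lung cancer cell lines in 1536-well plates were pinned with five library-drug doses (not always all listed) in √10 steps on vehicle-anchored plates. The cells then spent 5 days without medium change before a combined fix, permeabilisation and Hoechst stain, 4× imaging and MetaXpress nuclear counts. Viability is the treated-to-vehicle ratio of nuclei, taken as the median across plates. Only plates with control CV below 25% and at least one doubling passed.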

[2] = compound: CN(c1ncccc1CNc1nc(Nc2ccc3c(c2)CC(=O)N3)ncc1C(F)(F)F)S(C)(=O)=O + CC(=O)c1c(C)c2cnc(Nc3ccc(N4CCNCC4)cn3)nc2n(C2CCCC2)c1=O [Palbociclib] (partner 0.5 µM)
Method in brief: (§1)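 The day after seeding in 1536-well plates, lung cancer cell lines were treated by pin tool with a single drug, or with a fixed anchor-drug dose together with five library-drug doses (not always all listed) in √10 steps. After 5 days, a combined fix-and-stain solution (final 0.05% Triton X-100, 1% formaldehyde, 1 ug/ml Hoechst) was added. Nuclei counted on 4× images gave relative viability as treated counts over vehicle counts, reported as the median of duplicate plates.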

[3] = compound: CN(c1ncccc1CNc1nc(Nc2ccc3c(c2)CC(=O)N3)ncc1C(F)(F)F)S(C)(=O)=O + COc1cc2c(Oc3ccc(NC(=O)C4(C(=O)Nc5ccc(F)cc5)CC4)cc3F)ccnc2cc1OCCCN1CCOCC1 [Foretinib] (partner 0.25 µM)
Method in brief: as §1

[4] = compound: CN(c1ncccc1CNc1nc(Nc2ccc3c(c2)CC(=O)N3)ncc1C(F)(F)F)S(C)(=O)=O + COc1cccc2cc(-c3nc([C@H]4CC[C@H](C(=O)O)CC4)n4ncnc(N)c34)[nH]c12 [OSI-027] (partner 0.5 µM)
Method in brief: as §1

Cell Line	relative viability ([1]; 0.01 µM)	relative viability ([1]; 0.03162 µM)	relative viability ([1]; 0.1 µM)	relative viability ([1]; 0.3162 µM)	relative viability ([1]; 1 µM)	relative viability ([2]; first compound 0.01 µM)	relative viability ([2]; first compound 0.03162 µM)	relative viability ([2]; first compound 0.1 µM)	relative viability ([2]; first compound 0.3162 µM)	relative viability ([2]; first compound 1 µM)	relative viability ([3]; first compound 0.01 µM)	relative viability ([3]; first compound 0.03162 µM)	relative viability ([3]; first compound 0.1 µM)	relative viability ([3]; first compound 0.3162 µM)	relative viability ([3]; first compound 1 µM)	relative viability ([4]; first compound 0.01 µM)	relative viability ([4]; first compound 0.03162 µM)	relative viability ([4]; first compound 0.1 µM)	relative viability ([4]; first compound 0.3162 µM)	relative viability ([4]; first compound 1 µM)
NCI-H1651	1.02	1.04	1	0.982	0.963	0.527	0.529	0.529	0.487	0.5	0.817	0.88	0.906	0.765	0.784	0.802	0.794	0.738	0.796	0.739
NCI-H1666	1.01	0.953	0.965	0.818	0.719	0.696	0.614	0.627	0.639	0.543	0.977	0.874	0.851	0.976	0.843	0.779	0.841	0.792	0.695	0.556
NCI-H1734	0.985	1.04	0.947	1.02	0.953	0.35	0.327	0.345	0.348	0.304	0.93	0.911	0.796	0.828	0.712	0.581	0.612	0.534	0.609	0.545
NCI-H1755	1.05	1.05	0.956	0.922	0.938	0.449	0.473	0.452	0.44	0.434	0.88	0.983	0.9	0.832	0.833	0.708	0.789	0.737	0.678	0.699
NCI-H1793	0.877	1.07	0.928	0.857	0.786	0.314	0.321	0.328	0.341	0.324	0.58	0.641	0.667	0.449	0.523	0.238	0.276	0.246	0.288	0.297
NCI-H1915	0.992	1	0.965	0.995	0.991	0.498	0.532	0.58	0.525	0.509	1.13	1.06	1.04	1.12	1.04	0.639	0.625	0.607	0.684	0.615
NCI-H1944	0.993	0.983	1	1.02	1.06	0.346	0.342	0.328	0.322	0.312	0.771	0.941	0.87	0.938	0.79	0.401	0.445	0.38	0.453	0.439
NCI-H1975	1.01	0.964	0.927	0.931	0.95	0.602	0.639	0.712	0.532	0.502	0.962	0.984	0.959	0.84	0.929	0.747	0.675	0.796	0.694	0.615
NCI-H1993	0.855	0.99	0.855	0.925	0.821	0.479	0.64	0.669	0.652	0.597	0.692	0.994	0.744	0.75	0.767	0.456	0.508	0.5	0.541	0.525
NCI-H2009	1.07	1.03	0.965	0.961	0.982	0.207	0.179	0.251	0.202	0.191	1.17	1.22	1.27	1.27	0.965	0.714	0.617	0.607	0.663	0.671
NCI-H2023	1.06	1.19	0.787	0.797	0.892	0.382	0.405	0.376	0.339	0.229	0.791	0.715	0.731	0.752	0.642	0.412	0.464	0.404	0.425	0.393
NCI-H2085	0.989	1.04	0.947	0.948	0.9	0.444	0.467	0.443	0.462	0.401	0.878	0.925	0.906	0.824	0.748	0.77	0.907	0.735	0.734	0.749
NCI-H2087	1.01	1.21	0.974	1.05	1.06	0.23	0.277	0.258	0.252	0.279	1.04	1.03	1.02	1.2	0.974	0.513	0.766	0.594	0.659	0.585
NCI-H2126	1	1	0.911	0.964	0.872	0.358	0.351	0.308	0.352	0.306	1.34	1.13	1.06	1.19	1.08	0.753	0.719	0.638	0.712	0.633
NCI-H2170	0.962	1.13	1	0.965	0.981	0.422	0.434	0.39	0.382	0.388	1.02	1.02	1.01	1.02	0.949	0.672	0.695	0.679	0.791	0.752
NCI-H2228	1.01	1.23	1.23	1.01	0.921	0.836	0.878	0.881	0.749	0.6	1	0.995	0.749	0.927	0.811	0.825	0.827	0.563	0.514	0.464
